According to the supplement of paper PMC8497498:

How the values were obtained:
[1] = system: Plasmodium vivax liver stage (primary human hepatocyte culture)
In short: (§1)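 P. vivax sporozoites from mosquitoes fed on patient isolates were used to infect primary human hepatocytes, which received compounds at 8 points (10 uM[…]) or 12 points in duplicate (50 uM–280 pM). High-content imaging of immunostained wells recorded schizont growth area, hypnozoite count and hepatic nuclei relative to DMSO and positive-control wells. Potency, maximum inhibition and nuclei-loss cytotoxicity were fitted in CDD Vault from the best-quality run, omitting toxic bell-shaped points.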

[2] = system: primary human hepatocytes; assay: CC20 hepatic nuclei (20% reduction); higher = less toxic
In short: as §1

[3] = system: Plasmodium vivax liver stage (primary human hepatocyte culture); assay: maximum inhibition of schizont net growth area; higher = more active
In short: as §1

[4] = system: Plasmodium cynomolgi Berok K4 asexual blood stage; assay: EC50 asexual blood stage growth
In short: (§2)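 Reference compounds were assessed with SYBR Green proliferation assays against the asexual blood stages of P. falciparum, assayed over 72 h with AlbuMAX, and of P. cynomolgi. In the P. cynomolgi assays, ten-point threefold dilutions in DMSO were dispensed acoustically at 500-fold dilution, giving a top dose of 10 µM, and plates included vehicle and positive-control wells in 0.5% AlbuMAX or 20% macaque serum media. EC50 values represent geometric means over independent experiments.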

[5] = system: Plasmodium falciparum 3D7 asexual blood stage; assay: EC50 asexual blood stage growth; conditions: serum: 0.5% AlbuMAX
In short: as §2

[6] = P. vivax isolate: Pv360, hepatocyte lot: UBV, assay mode: Radical Cure, 8-day (treatment from day 5 post-infection)
[7] = P. vivax isolate: Pv914, hepatocyte lot: BGW, assay mode: Prophylactic, 6-day
[8] = serum: 20% M. fascicularis serum
[9] = P. vivax isolate: Pv557, hepatocyte lot: UBV, assay mode: Radical Cure, 8-day (treatment from day 5 post-infection)

`C=C(NC(=O)C(=C)NC(=O)c1csc(C2=NC3c4csc(n4)C4NC(=O)c5csc(n5)C(C(C)(O)C(C)O)NC(=O)C5CSC(=N5)C(=CC)NC(=O)C(C(C)O)NC(=O)c5csc(n5)C3(CC2)NC(=O)C(C)NC(=O)C(=C)NC(=O)C(C)NC(=O)C(C(C)CC)NC2C=Cc3c(C(C)O)cc(nc3C2O)C(=O)OC4C)n1)C(N)=O` (stereo not drawn) [Thiostrepton] was tested, and the EC50 hypnozoite quantity [1, 6] was over 10 µM, the “EC50 schizont net growth area” value [1, 6] was over 3.33 µM and the EC50 hypnozoite quantity [1, 7] was 4.04 µM. The “EC50 schizont net growth area” value [1, 7] was 2.39 µM, the CC20 hepatic nuclei [2, 6] was over 10 µM and the CC20 hepatic nuclei [2, 7] was over 3.33 µM. For the same compound, the maximum inhibition [3, 6] was 80.2%, the maximum inhibition [3, 7] was 99.1% and the “EC50 asexual blood stage growth” value ([4]; serum: 0.5% AlbuMAX) was 3.93 µM. For the same compound, the “EC50 asexual blood stage growth” value [4, 8] was 9.13 µM and the “EC50 asexual blood stage growth” value [5] was over 10 µM.

Compound `CCCCCCC[C@H]1CN[C@H](C(=O)NC(C(C)Cl)C2O[C@H](SC)[C@H](O)[C@@H](O)[C@H]2O)C1` (stereo partly drawn) [Trans-Mirincamycin] has an EC50 hypnozoite quantity [1, 7] of over 10 µM, a CC20 hepatic nuclei [2, 7] of over 10 µM and a maximum inhibition [3, 7] of 72.5%. The “EC50 asexual blood stage growth” value ([4]; serum: 0.5% AlbuMAX) was over 10 µM, the “EC50 asexual blood stage growth” value [4, 8] was over 10 µM and the “EC50 asexual blood stage growth” value [5] was over 10 µM.

With `Nc1ncc(-c2ccc(C(=O)N3CCNCC3)cc2)nc1-c1ccc(C(F)(F)F)cc1` [UCT943] the EC50 hypnozoite quantity [1, 9] was over 10 µM, the “EC50 schizont net growth area” value [1, 9] was 0.00238 µM and the EC50 hypnozoite quantity [1, 7] was 0.00427 µM. For the same compound, the “EC50 schizont net growth area” value [1, 7] was 0.00175 µM, the CC20 hepatic nuclei [2, 9] was over 10 µM and the CC20 hepatic nuclei [2, 7] was over 10 µM. The maximum inhibition [3, 9] was 101%, the maximum inhibition [3, 7] was 100% and the “EC50 asexual blood stage growth” value ([4]; serum: 0.5% AlbuMAX) was 0.0344 µM. The “EC50 asexual blood stage growth” value [4, 8] was 0.0206 µM and the “EC50 asexual blood stage growth” value [5] was 0.318 µM.
